Assay results: BindingDB's records for patent US20250313563 (The Broad Institute, 2025)
Several values for one entry are separate records, joined by “and”; a condition that tells them apart may be missing. Equal entries are not always repeated.

Columns and labels:
[1] = target: Glycogen synthase kinase-3 alpha (Homo sapiens, UniProt P49840); experiment: TR-FRET Assay
Outline: (§1)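 Compound was preincubated 30 min in assay buffer before the kinase reaction, which was quenched with EDTA. Phosphorylation was detected by TR-FRET after adding a solution of 40 nM streptavidin-d2 and 2 nM Tb-labelled anti-pSer641 antibody.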

[2] = target: Glycogen synthase kinase-3 beta (Homo sapiens, UniProt P49841); experiment: TR-FRET Assay
Outline: as §1

Sequence of Glycogen synthase kinase-3 beta (P49841 whole entry): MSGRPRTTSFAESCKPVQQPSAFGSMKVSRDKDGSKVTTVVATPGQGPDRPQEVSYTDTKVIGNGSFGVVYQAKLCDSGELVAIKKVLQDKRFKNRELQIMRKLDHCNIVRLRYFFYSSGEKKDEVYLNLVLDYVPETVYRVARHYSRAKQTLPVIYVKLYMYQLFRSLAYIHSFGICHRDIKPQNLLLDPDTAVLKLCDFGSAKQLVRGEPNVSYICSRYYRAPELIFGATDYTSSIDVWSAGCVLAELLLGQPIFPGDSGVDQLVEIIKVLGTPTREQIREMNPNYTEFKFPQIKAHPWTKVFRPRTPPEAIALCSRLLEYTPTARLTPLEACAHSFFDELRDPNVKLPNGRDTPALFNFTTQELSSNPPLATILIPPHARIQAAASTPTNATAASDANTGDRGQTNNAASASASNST
Sequence of Glycogen synthase kinase-3 alpha (P49840 whole entry): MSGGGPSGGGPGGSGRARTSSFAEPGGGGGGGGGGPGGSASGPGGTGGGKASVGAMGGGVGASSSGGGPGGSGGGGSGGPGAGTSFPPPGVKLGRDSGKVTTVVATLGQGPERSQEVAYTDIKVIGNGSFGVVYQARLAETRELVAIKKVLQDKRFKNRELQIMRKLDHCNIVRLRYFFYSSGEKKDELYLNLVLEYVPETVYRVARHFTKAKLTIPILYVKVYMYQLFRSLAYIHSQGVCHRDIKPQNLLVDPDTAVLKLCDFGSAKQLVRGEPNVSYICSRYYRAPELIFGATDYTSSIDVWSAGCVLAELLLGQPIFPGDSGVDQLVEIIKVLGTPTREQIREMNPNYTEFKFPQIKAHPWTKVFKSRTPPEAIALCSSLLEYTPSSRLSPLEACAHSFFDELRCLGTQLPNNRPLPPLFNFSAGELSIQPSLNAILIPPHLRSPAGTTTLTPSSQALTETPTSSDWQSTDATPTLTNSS

Structure (SMILES)	IC50 [1]	IC50 [2]
CC[C@]1(c2cccc(-c3ccnc(C)c3)c2)C2=C(CC(C)(C)CC2=O)NC2N=NC(C(F)(F)F)=C21 (stereo partly specified) [US20250313563, Compound 917291]	< 100 nM	< 100 nM and 100 to 1000 nM
CC(C)S(=O)(=O)N1CCC2(CC1)C1=C(N=NC1)NC1=C2C(=O)CC(C)(C)[C@H]1F [US20250313563, Compound 951701]	< 100 nM and 100 to 1000 nM	< 100 nM and 1000 to 5000 nM
CC[C@]1(c2cccc(-c3cncn3C)c2)C2=CN=NC2NC2=C1C(=O)CC(C)(C)C2 (stereo partly specified) [US20250313563, Compound 945620]	100 to 1000 nM	1000 to 5000 nM
CC(=O)N1CC[C@@]2(C1)C1=C(N=NC1)NC1=C2C(=O)CC(C)(C)C1 [US20250313563, Compound 889584]	100 to 1000 nM	1000 to 5000 nM
CCC1(c2cccc(C(C)C)c2)C2=C(N=NC2)NC2=C1C(=O)NC(C)(C)C2 (stereo unspecified) [US20250313563, Compound 949326]	< 100 nM	100 to 1000 nM
Cc1noc(C2CCC3(CC2)C2=C(N=NC2)NC2=C3C(=O)CC(C)(C)C2)n1 (stereo unspecified) [US20250313563, Compound 943895]	100 to 1000 nM	100 to 1000 nM
CC[C@@]1(c2cccc(-c3cc(C)nnc3C)c2)C2=CN=NC2NC2=C1C(=O)NC(C)(C)C2 (stereo partly specified) [US20250313563, Compound 949331]	< 100 nM and 100 to 1000 nM	100 to 1000 nM and 1000 to 5000 nM
CC[C@]1(c2cccc(-c3cnn(C)c3C)c2)C2=CN=NC2NC2=C1C(=O)NC(C)(C)C2 (stereo partly specified) [US20250313563, Compound 945617]	1000 to 5000 nM	> 5000 nM
C[C@H]1CCC[C@]2(C1)C1=C(N=NC1)NC1=C2C(=O)CC(C)(C)C1 [US20250313563, Compound 893319]	100 to 1000 nM	100 to 1000 nM
CC1(C)CC2=C(C(=O)[C@H]1F)[C@]1(CC[C@H](C(F)(F)F)CC1)C1=C(N=NC1)N2 [US20250313563, Compound 918282]	< 100 nM	< 100 nM
CCn1nccc1-c1cccc(C2(CC)C3=CN=NC3NC3=C2C(=O)CC(C)(C)C3)c1 (stereo unspecified) [US20250313563, Compound 929398]	< 100 nM	< 100 nM
CC1(C)CC(=O)C2=C(C1)NC1N=NC=C1[C@@]21CCCN(S(=O)(=O)Cc2ccccc2)CC1 (stereo partly specified) [US20250313563, Compound 945473]	< 100 nM	100 to 1000 nM
CC[C@@]1(c2cccc(C(F)(F)F)c2)C2=CN=NC2NC2=C1C(=O)N(C(C)(C)C)CC2 (stereo partly specified) [US20250313563, Compound 945634]	1000 to 5000 nM	> 5000 nM
CC1(C)CC(=O)C2=C(C1)NC1=C(CN=N1)[C@]21COC2(CN(C(=O)c3ccccc3)C2)C1 [US20250313563, Compound 943956]	100 to 1000 nM	1000 to 5000 nM
CC[C@@]1(c2cccc(-c3ccncc3F)c2)C2=CN=NC2NC2=C1C(=O)CC(C)(C)C2 (stereo partly specified) [US20250313563, Compound 943519]	100 to 1000 nM	1000 to 5000 nM
CCC1(c2cccc(-c3ccccc3)c2)C2=CN=NC2NC2=C1C(=O)CC(C)(C)C2 (stereo unspecified) [US20250313563, Compound 789514]	100 to 1000 nM	100 to 1000 nM
CC[C@]1(c2cccc(-c3ccnc(C)c3)c2)C2=CN=NC2NC2=C1C(=O)[C@H](F)C(C)(C)C2 (stereo partly specified) [US20250313563, Compound 945485]	> 5000 nM	> 5000 nM
CCC1(c2cccc(-c3c(C)nn(C)c3C)c2)C2=C(CC(C)(C)NC2=O)NC2N=NC(C(F)(F)F)=C21 (stereo unspecified) [US20250313563, Compound 947568]	< 100 nM	< 100 nM
CC[C@@]1(c2cccc(C(C)C)c2)C2=CN=NC2NC2=C1C(=O)CC(C)(C)C2 (stereo partly specified) [US20250313563, Compound 810375]	1000 to 5000 nM	> 5000 nM
CCC1(COCc2ccccc2)C2=C(N=NC2)NC2=C1C(=O)CC(C)(C)C2 (stereo unspecified) [US20250313563, Compound 874313]	1000 to 5000 nM	1000 to 5000 nM
CC[C@]1(c2cccc(Br)c2)C2=CN=NC2NC2=C1C(=O)C[C@@H](C(F)(F)F)C2 (stereo partly specified) [US20250313563, Compound 826653]	< 100 nM	100 to 1000 nM
CC1(C(F)(F)F)CC(=O)C2=C(C1)NC1=C(CN=N1)C21CCOCC1 (stereo unspecified) [US20250313563, Compound 901458]	100 to 1000 nM	100 to 1000 nM
CN(C)C(=O)c1ccc(S(=O)(=O)N2CCC3(CC2)C2=C(N=NC2)NC2=C3C(=O)CC(C)(C)C2)cc1 [US20250313563, Compound 945659]	< 100 nM	< 100 nM
CC1(C)CC(=O)C2=C(C1)NC1=C(CN=N1)[C@]21COC2(CN(C(=O)C3(F)CCC3)C2)C1 [US20250313563, Compound 947735]	< 100 nM	< 100 nM
CC1(C)CC(=O)C2=C(C1)NC1N=NC(C3CC(F)(F)C3)=C1[C@@]21COc2ccccc21 (stereo partly specified) [US20250313563, Compound 127430]	1000 to 5000 nM	100 to 1000 nM
CC[C@]1(c2cccc(C(F)(F)F)c2)C2=C(N=NC2)NC2=C1C(=O)NC2 [US20250313563, Compound 917157]	> 5000 nM	> 5000 nM
CC(=O)N1CC[C@]2(C1)C[C@@]1(CO2)C2=C(N=NC2)NC2=C1C(=O)CC(C)(C)C2 [US20250313563, Compound 948319]	< 100 nM	100 to 1000 nM

Structure (SMILES)	IC50 [1]	IC50 [2]
CCC1(c2cccc(C(F)(F)F)c2)C2=CN=NC2NC2=C1C(=O)NC1(CCC1)C2 (stereo unspecified) [US20250313563, Compound 902202]	< 100 nM	< 100 nM
CCC1(c2cccc(N3CCCc4ncccc43)c2)C2=CN=NC2NC2=C1C(=O)CC(C)(C)C2 (stereo unspecified) [US20250313563, Compound 889639]	< 100 nM	< 100 nM and 100 to 1000 nM
CC[C@]1(c2ccccc2)C2=CN=NC2NC2=C1C(=O)C[C@@](C)(C(F)(F)F)C2 (stereo partly specified) [US20250313563, Compound 819568]	100 to 1000 nM	100 to 1000 nM
CNC(=O)C1CCC2(CC1)C1=C(N=NC1)NC1=C2C(=O)CC(C)(C)C1 (stereo unspecified) [US20250313563, Compound 945397]	100 to 1000 nM	100 to 1000 nM
CCC1(c2cccc(-c3cn(C)nc3C)c2)C2=CN=NC2NC2=C1C(=O)NC(C)(C)C2 (stereo unspecified) [US20250313563, Compound 944030]	< 100 nM	< 100 nM
CC1CCC(C(=O)N2CC3(C2)CC2(CO3)C3=C(N=NC3)NC3=C2C(=O)CC(C)(C)C3)C1 (stereo unspecified) [US20250313563, Compound 947268]	< 100 nM	< 100 nM
CC[C@@]1(c2cccc(-c3cnn4c3OCCC4)c2)C2=CN=NC2NC2=C1C(=O)NC(C)(C)C2 (stereo partly specified) [US20250313563, Compound 952019]	< 100 nM	100 to 1000 nM
O=C1CCCC2=C1C1(CCOCC1)C1=C(N=NC1)N2 [US20250313563, Compound 884111]	1000 to 5000 nM	> 5000 nM
CCC1(c2cccc(N3CC(C)(C)C3C(C)C)c2)C2=CN=NC2NC2=C1C(=O)CC(C)(C)C2 (stereo unspecified) [US20250313563, Compound 902969]	100 to 1000 nM	1000 to 5000 nM
CCC1(c2cccc(-c3ccnc(C)c3C)c2)C2=CN=NC2NC2=C1C(=O)CC(C)(C)C2 (stereo unspecified) [US20250313563, Compound 913347]	< 100 nM	< 100 nM
CC[C@]1(c2cccc(-c3ccncc3OC3CC3)c2)C2=CN=NC2NC2=C1C(=O)NC(C)(C)C2 (stereo partly specified) [US20250313563, Compound 948643]	> 5000 nM	> 5000 nM
CCC1(c2cccc(N3CCCC[C@H]3C)c2)C2=CN=NC2NC2=C1C(=O)CC(C)(C)C2 (stereo partly specified) [US20250313563, Compound 885228]	< 100 nM	100 to 1000 nM
CC1(C)CC(=O)C2=C(C1)NC1=C(CN=N1)C21CN(S(=O)(=O)c2ccc(F)cc2)C1 [US20250313563, Compound 917144]	< 100 nM	< 100 nM
CC[C@@]1(c2cccc(Oc3ncccn3)c2)C2=C(CC(C)(C)NC2=O)NC2N=NC(Cl)=C21 (stereo partly specified) [US20250313563, Compound 951605]	1000 to 5000 nM	> 5000 nM
CC[C@]1(c2cccc(-c3ccnc(C)c3)c2)C2=CN=NC2NC2=C1C(=O)CC(C)(C)C2 (stereo partly specified) [US20250313563, Compound 865169]	< 100 nM and 100 to 1000 nM	100 to 1000 nM and > 5000 nM
CCC1(c2cccc(-c3cnn(CCOC)c3)c2)C2=C(CC(C)(C)CC2=O)NC2N=NC(C)=C21 (stereo unspecified) [US20250313563, Compound 883996]	< 100 nM	100 to 1000 nM
C[C@H]1C[C@@H]2C[C@@]3(C[C@@H]2C1)C1=CN=NC1NC1=C3C(=O)CC(C)(C)C1 (stereo partly specified) [US20250313563, Compound 943896]	< 100 nM	< 100 nM
CC1(C)CC(=O)C2=C(C1)NC1N=NC(C3(C(F)(F)F)CC3)=C1[C@]21CCc2c(F)cccc21 (stereo partly specified) [US20250313563, Compound 816840]	1000 to 5000 nM	100 to 1000 nM
CCC1(c2cccc(S(=O)(=O)C3CC(F)(F)C3)c2)C2=CN=NC2NC2=C1C(=O)CC(C)(C)C2 (stereo unspecified) [US20250313563, Compound 944019]	< 100 nM	< 100 nM
CC[C@@H]1C[C@]2(CO1)C1=C(N=NC1)NC1=C2C(=O)CC(C)(C)C1 [US20250313563, Compound 913213]	100 to 1000 nM	1000 to 5000 nM
CC1(C)CC(=O)C2=C(C1)NC1=C(CN=N1)C21COCCOC1 [US20250313563, Compound 912094]	1000 to 5000 nM	> 5000 nM
CC[C@@]1(c2cccc([C@H]3CCOC3)c2)C2=CN=NC2NC2=C1C(=O)CC(C)(C)C2 (stereo partly specified) [US20250313563, Compound 889558]	< 100 nM	100 to 1000 nM
CC[C@]1(c2cccc(-c3cnc(C)n3C)c2)C2=CN=NC2NC2=C1C(=O)CC(C)(C)C2 (stereo partly specified) [US20250313563, Compound 945613]	< 100 nM and 100 to 1000 nM	< 100 nM and 1000 to 5000 nM
CCC1(c2cccc(-c3c(C)nn(C)c3C)c2)C2=CN=NC2NC2=C1C(=O)CC(C)(C)C2 (stereo unspecified) [US20250313563, Compound 883851]	< 100 nM	< 100 nM
COc1cc(S(=O)(=O)N2CCC3(CC2)C2=C(N=NC2)NC2=C3C(=O)CC(C)(C)C2)ccc1F [US20250313563, Compound 947263]	< 100 nM and 100 to 1000 nM	< 100 nM and 1000 to 5000 nM
CC[C@@]1(c2cccc(-c3ccnc(C)c3)c2)C2=C(CC(C)(C)CC2=O)NC2N=NC(C)=C21 (stereo partly specified) [US20250313563, Compound 913018]	100 to 1000 nM	1000 to 5000 nM
